Test results published in patent US12600740B2, “Fluorinated N-acetyl glucosamine analogs and xylose derivatives” (UTI Limited Partnership, priority 2018, dated 2026).
Entries after “also recorded” stand apart in the source; their conditions may differ.

Experiments:
EAE mice [1] = experiment: Flow cytometry of spinal cord and circulating leukocytes in EAE mice; type: in vivo, mouse
Text: To assess the inflammatory profile of circulating leukocytes, we performed flow cytometry using a modified protocol published previously [Bellavance, M. A., Gosselin, D., Yong, V. W., Stys, P. K. & Rivest, S. Patrolling monocytes play a critical role in CX3CR1-mediated neuroprotection during excitotoxicity. Brain Struct Funct 220, 1759-76 (2015)]. Briefly, mice were anaesthetized using ketamine/xylazine, after which blood was drawn via cardiac puncture. Heparin-coated syringes were used to draw approximately 130 μL of blood, which was then subsequently diluted with 70 μL of Hanks' Balanced Salt Solution (HBSS; Gibco) without calcium and magnesium. Fc receptors were then blocked by addition of Mouse BD Fc Block (1:100; BD Pharmingen) for 30 minutes at 4° C. Primary antibodies (1:50) were then added and incubated for 45 minutes at 4° C. The primary antibodies used were CD45-PerCP (BD Pharmingen; Clone 30-F11), CD11b-FITC (BD Pharmingen; Clone M1/70), Ly6G-APC-Cy7 (BD Pharmingen; Clone 1A8), Ly6C-V450 (BD Horizon; Clone AL-21), and CD3-PE (BD Pharmingen; Clone 17A2). Red blood cells were then lysed by rocking samples at room temperature for 12 minutes with 1 mL of BD FACS Lysing Solution (BD Biosciences). Samples were then washed at 1200 rpm for 10 minutes at 4° C., followed by two more washes at 2000 rpm for 3 minutes at 4° C. Prior to acquisition on a flow cytometer (BD LSRII), cells were then fixed in 1% formalin for 10 minutes and then resuspended in HBSS without calcium and magnesium.
For flow cytometry of the spinal cord, spinal cords were dissected following a PBS perfusion. The thoracic and lumber sacral part of isolated spinal cords were separated into neural and leucocyte populations by density gradient centrifugation using isotonic Percoll (GE Healthcare). The leukocytes samples were prepared at 4° C. in fluorescence-activated cell sorting (FACS) buffer solution (BD Biosciences) and Fc receptors were then blocked by addition of Mouse BD Fc Block (1:100; BD Pharmingen) for 30 minutes at 4° C. The cells were stained with antibodies against CD45-PerCP (BD Pharmingen; Clone 30-F11), CD11b-FITC (BD Pharmingen; Clone M1/70) and CD3-APC-Cy7 (BD Pharmingen; Clone 17A2) for 45 minutes and then washed three times with FACS buffer. The cells were fixed in 1% buffered formalin for 10 min and resuspended in the 200 μl of the FACS buffer.
Data acquisition was performed on a flow cytometer (BD FACSAria; BD Biosciences) and analysed with FlowJo software (version 8.6, TreeStar). To ensure proper compensation and gating, unstained samples, appropriate isotype controls, and single-stain controls were included. All data was analyzed using FlowJo software.

EAE mice [2] = experiment: Perivascular cuffs per spinal cord and Imaris quantification of CD45+ cells in EAE mice; type: in vivo, mouse
Text: Previously it was shown that CSPGs are accumulated in perivascular cuffs and may have a role in activating immune cells and promoting their migration into the CNS [Stephenson, E. L. et al. Chondroitin sulfate proteoglycans as novel drivers of leucocyte infiltration in multiple sclerosis. Brain: a journal of neurology 141, 1094-1110 (2018)]. For the current study, cervical spinal cord sections from EAE mice treated with Ac-4,4-diF-GlcNAc 16 or vehicle were stained with pan-laminin and CD45. Confocal images were processed by Imaris software to quantify the number of CD45+ cells and their intra-parenchymal distances from perivascular cuffs as previously described [Stephenson, E. L. et al. Chondroitin sulfate proteoglycans as novel drivers of leucocyte infiltration in multiple sclerosis. Brain: a journal of neurology 141, 1094-1110 (2018)] (FIG. 10f).
Perivascular cuffs were identified with pan-laminin staining of two basement membranes with CD45+ cells clustered within the perivascular space. To obtain the average number of perivascular cuffs per spinal cord, perivascular cuffs were counted on 4 cervical spinal cord sections (each >200 μm apart), and then averaged to obtain the average perivascular cuffs per spinal cord per mouse. The Imaris software (Bitplane, Switzerland) was used to quantify the number and distance of CD45+ cells around perivascular cuffs. CD45+ cells were registered as spots and the laminin-positive membranes were registered as surfaces. The Xtension component in Imaris ‘distance transformation’ calculated the distance of every CD45+ cell from the perivascular cuff.

splenocytes = conditions: shown previously (Grigorian et al. 2011); cited from earlier work
[3] = system: CSPG production by astrocytes; conditions: previously described (Keough et al. 2016); cited from earlier work
[4] = 25 mg/kg daily day 7 to 15, lumbar/thoracic spinal cord
[5] = 25 mg/kg daily day 7 to 15, spinal cord

## CC(=O)NC1C(OC(C)=O)OC(COC(C)=O)C(F)(F)[C@@H]1OC(C)=O (mixture of isomers) [Compound 16, 2-Acetamido-1,3,6-tri-O-acetyl-2,4-dideoxy-4,4-difluoro-α/β-D-xylo-hexopyranose]
EAE mice [1]; 25 mg/kg daily day 7 to 15, blood at peak EAE
  circulating monocyte, neutrophil and lymphocyte populations: no significant difference; also recorded: did not show changes in monocyte or lymphocyte populations; also recorded: did not affect levels of circulating leukocytes
EAE mice [1]; [4]
  CD45+ CD3+ T lymphocytes within the spinal cord: significantly lowered
  CD45HiCD11b+ infiltrating monocytes/macrophages in spinal cord: significantly decreased
EAE mice [1]; [5]
  median fluorescence intensity of CD11b of CD11b+CD45+ cells: significantly reduced
  median fluorescence intensity of CD45 in CD11b+CD45+ cells: decreased
EAE mice [2]; 0 to 100 μm, two-way repeated measures ANOVA
  CD45+ cells by distance from perivascular cuffs, overall versus vehicle: overall significant difference
EAE mice [2]; 25 mg/kg daily day 7 to 15
  average number of perivascular cuffs per spinal cord: significantly reduced average number of perivascular cuffs
EAE mice [2]; 25 mg/kg daily day 7 to 15, cervical spinal cord
  CD45+ cells in the vicinity of perivascular cuffs (within 100 μm): significantly fewer CD45+ cells in the vicinity of perivascular cuffs
EAE mice [2]; 50-100 μm
  number of CD45+ cells at 50-100 μm from perivascular cuffs versus vehicle: significant difference

## CC(=O)N[C@H]1[C@H](OC(C)=O)O[C@H](COC(C)=O)[C@@H](OC(C)=O)[C@@H]1OC(C)=O [Compound 1, reference compound]
splenocytes
  splenocyte proliferation: reduction in splenocyte proliferation

## CC(=O)NC1C(OC(C)=O)OC(COC(C)=O)[C@@H](F)C1OC(C)=O (some centres unmarked) [Compound 3, reference compound]
[3]
  production of CSPGs by astrocytes: reduced production of CSPGs by astrocytes
